Measurements reported in US20230330188A1, “PHARMACEUTICAL COMBINATION FOR USE IN THE TREATMENT AND/OR PREVENTION OF DIABETES” (INSPHERO AG, priority 2020, published 2023).

System: 3D InSight™ Human Islet Microtissues
Experiment: Glucose-stimulated insulin secretion (GSIS) after 13 days of glucolipotoxicity (GLTX) induced islet injury
Type: cell-based
Details: GSIS at 16.7 mM glucose, vs GLTX group

Molecule | glucose-stimulated insulin secretion (GSIS) (FIG. 3, long-term (13 days) treatment with 10 μM verapamil alone in glucolipotox medium) | glucose-stimulated insulin secretion (GSIS) (FIG. 2, long-term (13 days) treatment with 1 μM semaglutide alone in glucolipotox medium)
COc1ccc(CCN(C)CCCC(C#N)(c2ccc(OC)c(OC)c2)C(C)C)cc1OC (centres unmarked) [verapamil] | has a positive influence on GSIS | 
semaglutide |  | does not improve the GSIS
